Settings: in water

O=C(O)CCCCCCCC(=O)O
Settings | solubility (mole fraction)
280.15 K | 5.94e-05
285.85 K | 8.13e-05
291.85 K | 0.000117
298.15 K | 0.000171
307.85 K | 0.000287
316.15 K | 0.000336
325.75 K | 0.000481
330.15 K | 0.0007
334.65 K | 0.000931
338.15 K | 0.00128
344.15 K | 0.00132
347.65 K | 0.00153
353.05 K | 0.00191
357.65 K | 0.00173

O=C(O)COCC(=O)O
Settings | solubility (mole fraction)
278.25 K | 0.0365
284.15 K | 0.0469
288.75 K | 0.0686
293.75 K | 0.0748
296.65 K | 0.0823
301.25 K | 0.104
310.65 K | 0.128
313.15 K | 0.139
321.15 K | 0.161
323.15 K | 0.167
327.65 K | 0.188
332.65 K | 0.205
338.15 K | 0.22
343.15 K | 0.239
348.15 K | 0.254
353.05 K | 0.268
357.15 K | 0.284
361.35 K | 0.295

O=C(O)CCCCCCC(=O)O
Settings | solubility (mole fraction)
280.15 K | 9.55e-05
285.85 K | 0.000128
291.85 K | 0.000177
298.15 K | 0.00025
305.65 K | 0.000341
307.65 K | 0.000369
313.15 K | 0.00042
317.65 K | 0.000485
323.35 K | 0.000579
325.85 K | 0.00064
334.65 K | 0.00101
337.15 K | 0.00117
343.25 K | 0.00149
349.65 K | 0.00212

CC(=O)CCC(=O)O
Settings | solubility (mole fraction)
280.15 K | 0.18
283.15 K | 0.214
287.65 K | 0.278
293.95 K | 0.374
298.15 K | 0.448
303.25 K | 0.519

From BigSolDB 2.1
